# Reference: paper PMC6023086, “Improving the Activity of Trp-Rich Antimicrobial Peptides by Arg/Lys Substitutions and Changing the Length of Cationic Residues” (Biomolecules, 2018)
# Where a SMILES comes first, the peptide text is derived from it. Where no end group is shown, it is not given here. [ ]: non-standard residue; d: D form. Orn = NCCC[C@H](N)C(=O)O; Dab = NCC[C@H](N)C(=O)O; Dap = NC[C@H](N)C(=O)O
# Tested on: Escherichia coli ATCC 25922
# Type: cell-based
# Details: ATCC 25922, 16 h
# Method: The antibacterial activity of the Tritrp-derived peptides and other AMPs was assessed against E. coli ATCC 25922, as a representative of Gram-negative bacteria, incubated in Mueller-Hinton broth media (Table 2). […] Arg-to-Lys mutations were correlated with a decrease in activity for almost all peptides. […] The lack of sensitivity of the activity of the Tritrp3 peptide to the nature of the positively charged residues prompted a more detailed study of the structure-activity relationship. Tritrp7 and Tritrp8 are analogs of Tritrp3 where only a single Pro residue is mutated by Ala. These mutations are known to alter the 3D structure of the peptides when interacting with sodium dodecyl sulfate (SDS) micelles, specifically reducing the helicity of the original Tritrp3 peptide (Table 1).
# The antibacterial activity for the peptides in this study against E. coli ATCC 25922 was determined by the broth microdilution method. Briefly, E. coli cells at 5 × 10^5 cfu/mL, obtained from a single colony culture, were incubated in Mueller Hinton broth (MHB) media (Sigma Aldrich, St. Louis, MO, USA) in the presence of two-fold dilution of peptides (0–256 µM) in 96-well polypropylene microtiter plates (Sigma Aldrich, St. Louis, MO, USA). The plates were incubated at 37 °C for 16 h, and the minimal inhibitory concentration was determined after incubation as the minimal peptide concentration at which cell growth was not observed.
row,Compound,MIC [µM]
1,CC(C)C[C@H](NC(=O)[C@H](Cc1ccccc1)NC(=O)[C@@H]1CCCN1C(=O)[C@H](Cc1c[nH]c2ccccc12)NC(=O)[C@H](Cc1c[nH]c2ccccc12)NC(=O)[C@H](Cc1c[nH]c2ccccc12)NC(=O)[C@@H]1CCCN1C(=O)[C@H](Cc1ccccc1)NC(=O)[C@H](CCN)NC(=O)[C@H](CCN)NC(=O)[C@@H](N)C(C)C)C(=O)N[C@@H](CCN)C(=O)N[C@@H](CCN)C(N)=O [Tritrp–Dab] (H-V[Dab][Dab]FPWWWPFL[Dab][Dab]-NH2),4 to 8
2,VKKFAWWWAFLKK-NH2 [Tritrp3–Lys],2
3,CC(C)C[C@H](NC(=O)[C@H](Cc1ccccc1)NC(=O)[C@@H]1CCCN1C(=O)[C@H](Cc1c[nH]c2ccccc12)NC(=O)[C@H](Cc1c[nH]c2ccccc12)NC(=O)[C@H](Cc1c[nH]c2ccccc12)NC(=O)[C@@H]1CCCN1C(=O)[C@H](Cc1ccccc1)NC(=O)[C@H](CN)NC(=O)[C@H](CN)NC(=O)[C@@H](N)C(C)C)C(=O)N[C@@H](CN)C(=O)N[C@@H](CN)C(N)=O [Tritrp–Dap] (H-V[Dap][Dap]FPWWWPFL[Dap][Dap]-NH2),4
4,"CC[C@H](C)[C@H](N)C(=O)N[C@@H](CC(C)C)C(=O)N1CCC[C@H]1C(=O)N[C@@H](Cc1c[nH]c2ccccc12)C(=O)N[C@@H](CCCCN)C(=O)N[C@@H](Cc1c[nH]c2ccccc12)C(=O)N1CCC[C@H]1C(=O)N[C@@H](Cc1c[nH]c2ccccc12)C(=O)N[C@@H](Cc1c[nH]c2ccccc12)C(=O)N1CCC[C@H]1C(=O)N[C@@H](Cc1c[nH]c2ccccc12)C(=O)N[C@@H](CCCNC(=N)N)C(=O)N[C@@H](CCCNC(=N)N)C(N)=O [Indolicidin, reference compound]",8
5,GIGRWLHSARRFGRAFVGEIMNS [Magainin2-F5W–Arg],8
6,CC(C)C[C@H](NC(=O)[C@H](Cc1ccccc1)NC(=O)[C@@H]1CCCN1C(=O)[C@H](Cc1c[nH]c2ccccc12)NC(=O)[C@H](Cc1c[nH]c2ccccc12)NC(=O)[C@H](Cc1c[nH]c2ccccc12)NC(=O)[C@@H]1CCCN1C(=O)[C@H](Cc1ccccc1)NC(=O)[C@H](CCNC(=N)N)NC(=O)[C@H](CCNC(=N)N)NC(=O)[C@@H](N)C(C)C)C(=O)N[C@@H](CCNC(=N)N)C(=O)N[C@@H](CCNC(=N)N)C(N)=O [Tritrp–Agb],4
7,VRRFPWWWAFLRR-NH2 [Tritrp8–Arg],2 to 4

# Second part, the compound after the results:
row,MIC [µM],Compound
1,16,CC(C)C[C@H](NC(=O)[C@H](Cc1ccccc1)NC(=O)[C@@H]1CCCN1C(=O)[C@H](Cc1c[nH]c2ccccc12)NC(=O)[C@H](Cc1c[nH]c2ccccc12)NC(=O)[C@H](Cc1c[nH]c2ccccc12)NC(=O)[C@@H]1CCCN1C(=O)[C@H](Cc1ccccc1)NC(=O)[C@H](CCCN)NC(=O)[C@H](CCCN)NC(=O)[C@@H](N)C(C)C)C(=O)N[C@@H](CCCN)C(=O)N[C@@H](CCCN)C(N)=O [Tritrp–Orn] (H-V[Orn][Orn]FPWWWPFL[Orn][Orn]-NH2)
2,32,VKKFAWWWPFLKK-NH2 [Tritrp7–Lys]
3,8,VRRFAWWWPFLRR-NH2 [Tritrp7–Arg]
4,2 to 4,CC(C)C[C@H](NC(=O)[C@H](Cc1ccccc1)NC(=O)[C@@H]1CCCN1C(=O)[C@H](Cc1c[nH]c2ccccc12)NC(=O)[C@H](Cc1c[nH]c2ccccc12)NC(=O)[C@H](Cc1c[nH]c2ccccc12)NC(=O)[C@@H]1CCCN1C(=O)[C@H](Cc1ccccc1)NC(=O)[C@H](CCCNC(=N)N)NC(=O)[C@H](CCCNC(=N)N)NC(=O)[C@@H](N)C(C)C)C(=O)N[C@@H](CCCNC(=N)N)C(=O)N[C@@H](CCCNC(=N)N)C(N)=O [Tritrp–Arg]
5,16,ILPWKWPWWPWKK-NH2 [Indolicidin–Lys]
6,16,VKKFPWWWPFLKK-NH2 [Tritrp–Lys]
7,4,CC(C)C[C@H](NC(=O)[C@H](Cc1ccccc1)NC(=O)[C@@H]1CCCN1C(=O)[C@H](Cc1c[nH]c2ccccc12)NC(=O)[C@H](Cc1c[nH]c2ccccc12)NC(=O)[C@H](Cc1c[nH]c2ccccc12)NC(=O)[C@@H]1CCCN1C(=O)[C@H](Cc1ccccc1)NC(=O)[C@H](CCCCNC(=N)N)NC(=O)[C@H](CCCCNC(=N)N)NC(=O)[C@@H](N)C(C)C)C(=O)N[C@@H](CCCCNC(=N)N)C(=O)N[C@@H](CCCCNC(=N)N)C(N)=O [Tritrp–hArg]
8,4,VKKFPWWWAFLKK-NH2 [Tritrp8–Lys]
9,2,VRRFAWWWAFLRR-NH2 [Tritrp3–Arg]

# Same assay, conditions: E. coli ATCC 25922, Mueller-Hinton broth, 5 × 10^5 cfu/mL, 37 °C, 16 h; run in triplicate, range of all three experiments
row,Compound,MIC [µM]
1,"FPVTWKWWKWWKG-NH2 [PuroA–Lys, reference compound]",8
2,FPVTWRWWRWWRG-NH2 [PuroA–Arg],8 to 16
